Data on 4 compounds can be found in patent US20040086888A1, “Method for tandem genomic/proteomic analysis of proliferating cells” (priority 2003, published 2004).

One experiment deals with human breast tumor cells. Nature of the experiment: Hormonal therapy inhibition of cell proliferation (Example 6). The experiment is classed as cell-based.
The next experiment deals with tumor cells in culture. The experiment can be described thus: Microtiter well assay of drug/radiation interaction (FIGS. 8A-8C). The experiment is classed as cell-based. Particulars: Taxol 8.5 ng/ml or 42.5 ng/ml + 2 Gy and 4 Gy versus radiation-only. From the text: The microtiter well assay is ideally suited for examination of the interaction of chemotherapeutic agents and radiation. Issues such as the differential sensitivity of drug/radiation combinations and the timing of drug/radiation combinations may be directly addressed with this system.

For experiment [1], the system named is human ovarian tumor cells. Nature of the experiment: Combination chemotherapy microtiter assay (Example 5). Particulars: four tumor specimens.
Experiment [2] deals with human brain tumor and human ovarian tumor cells. The experiment can be described thus: Combined modality drug/radiation microtiter assay (Example 8). The experiment is classed as cell-based. Particulars: Taxol 0.5-25.0 μM with 2 Gy, or Taxol 5 μM with 1 Gy-6 Gy; through five days post-treatment.
Description: Twenty-four hours post-plating, cells in the microtiter plate wells were exposed to the chemotherapeutic agent Taxol. One set of plates was designed to have escalating Taxol doses with (0.5-25.0 μM) with a fixed radiation dose (2 Gy). A second set of plates was designed to have a fixed Taxol dose (5 μM) with an escalating radiation dose (1 Gy-6 Gy). The cells in the plates were irradiated using a Siemans Stabilipan X-ray machine operating at 250 kVp, 15 mA with a dose rate of 75 rad/min.
For each of the two treatment schema, cell number per well was monitored as a function of time through five days post-treatment. Cell number relative to controls was determined and survival curves were fit.
The test system of experiment [3] is epithelial tumor cell lines. The experiment can be described thus: Immunoperoxidase staining for intermediate filaments. The experiment is classed as cell-based. The following applies: immunoperoxidase technique, cells in culture. From the text: (§1) The technique is practiced as follows. The same cell culturing and well distribution process is used as in the cytotoxicity assay described above, but rather than exposing the cells to chemotherapeutic or other agents, the cells are instead fixed and stained. With the stain or stain cocktail described below, the epithelial cells are identified by their intermediate filaments and/or specific membrane antigens by means of a monoclonal antibody immunoperoxidase technique. […] The fixed stained cells are then counted. If the specimen is positive for epithelial cells, the process is complete. If the specimen is negative for epithelial cells, an independent fixing and staining process is subsequently completed, with fresh cells from identical wells, using Vimentin as a stain to confirm the non-epithelial nature of the cells.
(§2) Many tumor specimens will contain a mixture of cancer and normal cells. Although in many cases tumor cells will readily grow in tissue culture while the normal cells will not, it is important to be able to distinguish the two cell types. Using immunoperoxidase techniques to stain cells for various intermediate filaments, the differences between normal (fibroblast-like) cells and cells from epithelial tumors were characterized. These techniques can also be used to identify other tumor cell characteristics which may have prognostic value. […]

The next experiment concerns fibroblast cell line. The description is as above. The experiment is classed as cell-based. The following applies: immunoperoxidase technique, cells in culture.
Description: as §1, §2

Regarding `CC/C(=C(\c1ccccc1)c1ccc(OCCN(C)C)cc1)c1ccccc1` [Tamoxifen], the “inhibition of cell proliferation (cell number relative to control)” value with human breast tumor cells (10 nM to 20 μM, six doses, 24 h exposure, then 72 h incubation, four breast tumor specimens) is listed as “two of the four breast specimens tested showed an inhibition of cell proliferation”. Also, the “concentration range in which the responses occurred” value in the experiment on human breast tumor cells (range tested 10 nM to 20 μM) was “mid-to-high”.

Turning to `CC(=O)O[C@H]1C(=O)[C@@]2(C)[C@H]([C@H](OC(=O)c3ccccc3)[C@]3(O)C[C@H](OC(=O)[C@H](O)[C@@H](NC(=O)c4ccccc4)c4ccccc4)C(C)=C1C3(C)C)[C@]1(OC(C)=O)CO[C@@H]1C[C@@H]2O` [Taxol], in the experiment with tumor cells in culture, the “effect on radiation response (survival rates)” value is reported as “enhancement of radiation response”. Further, the “cell number relative to control” value in experiment [1] (escalating Taxol (1.0, 5.0, 25 μM) with fixed carboplatin (200 μM)) is given as “a dose response relationship was observed”. For the same compound, the “cell killing in combination with radiation (cell number relative to controls, survival curves)” value in experiment [2] was “Both additive and synergistic cell killing were noted”.

Turning to `N.N.O=C([O-])C1(C(=O)[O-])CCC1.[Pt+2]` [carboplatin], the “cell number relative to control” value in experiment [1] (fixed Taxol (5 μM) with escalating carboplatin (50, 200, 1000 μM)) is on record as “a dose response relationship was observed”.

As to Vimentin, the “staining of epithelial tumor cells” value in experiment [3] was “mildly positive”. Also, the staining of fibroblasts entry in the experiment with fibroblast cell line is “all fibroblast cells were positive”.
